Reference: publication PMC4021826, “Functional characterization of a xylose transporter in Aspergillus nidulans” (Biotechnology for Biofuels, 2014)

Target: T1, XtrD (Aspergillus nidulans, UniProt Q5BGT0)
T1 construct: gene ANIA_00250; full-length xtrD in modified vector pRH195 (HXT7 promoter), expressed in S. cerevisiae EBY.VW4000 lacking hexose transporters
T1 sequence (Q5BGT0 1-547): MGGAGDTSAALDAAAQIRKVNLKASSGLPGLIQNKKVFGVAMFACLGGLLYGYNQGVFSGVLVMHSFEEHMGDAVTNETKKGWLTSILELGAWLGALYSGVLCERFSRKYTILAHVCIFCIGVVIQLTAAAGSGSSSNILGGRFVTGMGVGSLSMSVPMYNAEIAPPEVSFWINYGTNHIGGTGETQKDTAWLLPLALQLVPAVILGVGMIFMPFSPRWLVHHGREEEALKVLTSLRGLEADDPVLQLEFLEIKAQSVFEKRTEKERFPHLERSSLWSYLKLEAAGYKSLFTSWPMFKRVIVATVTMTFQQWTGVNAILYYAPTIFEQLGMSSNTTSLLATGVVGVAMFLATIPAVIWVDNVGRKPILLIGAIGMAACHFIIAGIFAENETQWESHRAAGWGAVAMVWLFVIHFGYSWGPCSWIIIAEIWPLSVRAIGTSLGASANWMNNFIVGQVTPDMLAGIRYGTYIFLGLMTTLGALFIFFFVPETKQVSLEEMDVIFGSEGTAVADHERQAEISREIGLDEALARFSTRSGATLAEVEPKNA
Assay: competition of […]glucose uptake in S. cerevisiae EBY.VW4000 expressing xtrD
Assay type: cell-based
Conditions: 10- and 20-fold excess unlabeled xylose over glucose, respectively; 5 s uptake, 30 °C

`OC1OC[C@@H](O)[C@H](O)[C@H]1O` (stereo partly shown) [xylose] was tested, and the “% inhibition of radiolabeled glucose transport at 10- and 20-fold excess” value was 90% to 100%.
